Drawing on EP4596574A1, “GLP-1/GCG/GIP TRIPLE-RECEPTOR AGONIST AND USE THEREOF” (Sunshine Lake Pharma Co., Ltd., priority 2022, dated 2024), this text covers EC50 for six compounds.

One may read the EC50 as the concentration that produces a half-maximal response.

Starred links: 1 amine or outer side, 2 acyl side, 3 side chain; linkers in the order of their positions; H or OH if unused. Non-standard residues stand in square brackets, D forms with d. Residues, ends and D or L forms follow the SMILES beside them. Groups on a side chain read outwards from the residue. *: point of attachment. C18 diacid = O=C(O)CCCCCCCCCCCCCCCCC(=O)*; αMePhe(2-F) = C[C@](N)(Cc1ccccc1F)C(=O)O; γGlu = O=C(O)[C@H](CCC(=O)[*:2])N[*:1]; AEEA = NCCOCCOCC(=O)O; Aib = CC(C)(N)C(=O)O

Type in all cases: cell-based
The target of one test is T1, GIPR (Homo sapiens, UniProt P48546).
T1 construct: expressed in transfected cells; host or cells: HEK293 (HEK293-GIPR)
T1 sequence (P48546 22-466): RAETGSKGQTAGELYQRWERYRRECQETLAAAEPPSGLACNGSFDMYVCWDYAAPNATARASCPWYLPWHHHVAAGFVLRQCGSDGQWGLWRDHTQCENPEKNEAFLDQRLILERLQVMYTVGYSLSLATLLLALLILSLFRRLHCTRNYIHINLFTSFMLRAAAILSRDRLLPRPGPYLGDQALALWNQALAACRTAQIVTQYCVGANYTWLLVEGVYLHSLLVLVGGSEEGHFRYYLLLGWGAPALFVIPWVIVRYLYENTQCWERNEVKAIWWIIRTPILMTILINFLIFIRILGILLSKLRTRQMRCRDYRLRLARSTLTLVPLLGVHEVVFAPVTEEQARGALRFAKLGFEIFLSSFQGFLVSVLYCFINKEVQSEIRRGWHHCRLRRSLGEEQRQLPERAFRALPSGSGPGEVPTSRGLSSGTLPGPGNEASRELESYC
The test is described as follows: In vitro cell activity, cAMP production in HEK293 cells expressing GIPR. The note with it: HEK293-GIPR cells, cAMP; read-out: GIPR (EC50). Summed up:
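cAMP accumulation is quantified by homogeneous TR-FRET (cAMP-d2 plus anti-cAMP cryptate) in GIPR-expressing HEK293 cells seeded from a 4×10^5 cells/mL suspension and treated with compound. The signal ratio is plotted against concentration and fitted to a four-parameter curve to give EC50.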

A further test has as its target T2, GLP-1R (Homo sapiens, UniProt P43220).
T2 construct: expressed in transfected cells; host or cells: HEK293 (HEK293-GLP-1R)
The test is described as follows: In vitro cell activity, cAMP production in HEK293 cells expressing GLP-1R. Conditions: HEK293-GLP-1R cells, cAMP; read-out: GLP-1R (EC50). A digest of the protocol:
(§1)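 Assay format: cells at 4×10^5 cells/mL, cAMP sensed by d2/cryptate FRET pair, dual-wavelength read at 665 and 620 nm. Potency expressed as EC50 from nonlinear fitting.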
On the technique in general: Cyclic AMP is a second messenger, typically raised through Gs and lowered through Gi signalling.

For the next test, the target named is T3, GCGR (Homo sapiens, UniProt P47871).
T3 construct: expressed in transfected cells; host or cells: HEK293 (HEK293-GCGR)
The test is described as follows: In vitro cell activity, cAMP production in HEK293 cells expressing GCGR. Conditions: HEK293-GCGR cells, cAMP; read-out: GCGR (EC50). A digest of the protocol:
as §1

T3 sequence (P47871 26-477, species assumed): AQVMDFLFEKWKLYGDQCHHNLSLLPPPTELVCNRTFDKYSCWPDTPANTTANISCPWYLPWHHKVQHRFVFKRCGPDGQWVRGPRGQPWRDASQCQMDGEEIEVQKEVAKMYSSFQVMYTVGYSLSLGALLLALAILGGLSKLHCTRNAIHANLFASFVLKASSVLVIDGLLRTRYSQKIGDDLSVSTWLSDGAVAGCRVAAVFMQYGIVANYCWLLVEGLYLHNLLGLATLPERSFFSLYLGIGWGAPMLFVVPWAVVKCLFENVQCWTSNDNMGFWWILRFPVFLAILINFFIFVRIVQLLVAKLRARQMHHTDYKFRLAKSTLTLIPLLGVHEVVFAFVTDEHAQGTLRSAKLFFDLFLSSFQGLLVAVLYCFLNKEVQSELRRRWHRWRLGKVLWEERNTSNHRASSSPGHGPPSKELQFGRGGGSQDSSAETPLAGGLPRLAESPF
T2 sequence (P43220 24-463, species assumed): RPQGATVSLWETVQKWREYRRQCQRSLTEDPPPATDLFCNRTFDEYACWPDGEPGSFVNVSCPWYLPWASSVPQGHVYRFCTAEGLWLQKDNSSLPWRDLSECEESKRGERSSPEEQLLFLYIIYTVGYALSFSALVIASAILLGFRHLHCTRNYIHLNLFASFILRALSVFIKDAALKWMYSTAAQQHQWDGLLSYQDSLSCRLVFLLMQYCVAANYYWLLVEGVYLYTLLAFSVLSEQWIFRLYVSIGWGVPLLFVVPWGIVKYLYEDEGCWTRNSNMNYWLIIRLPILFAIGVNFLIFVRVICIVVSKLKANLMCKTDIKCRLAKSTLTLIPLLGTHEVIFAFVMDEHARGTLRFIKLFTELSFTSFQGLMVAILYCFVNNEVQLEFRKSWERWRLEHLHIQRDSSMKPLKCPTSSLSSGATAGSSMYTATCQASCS

Consider `CC[C@H](C)[C@H](NC(=O)[C@H](Cc1ccccc1)NC(=O)[C@H](C)NC(=O)[C@H](CCC(N)=O)NC(=O)[C@H](CCC(N)=O)NC(=O)[C@H](CCCNC(=N)N)NC(=O)[C@H](CCCCNC(=O)COCCOCCNC(=O)CC[C@H](NC(=O)CCCCCCCCCCCCCCCCC(=O)O)C(=O)O)NC(=O)[C@H](CCC(=O)O)NC(=O)[C@H](CC(=O)O)NC(=O)[C@H](CC(C)C)NC(=O)[C@H](CC(C)C)NC(=O)[C@@H](NC(=O)[C@H](CO)NC(=O)[C@H](Cc1ccc(O)cc1)NC(=O)[C@H](CC(=O)O)NC(=O)[C@H](CO)NC(=O)[C@@H](NC(=O)[C@](C)(Cc1ccccc1F)NC(=O)[C@@H](NC(=O)CNC(=O)[C@H](Cc1c[nH]cn1)NC(=O)C(C)(C)NC(=O)[C@@H](N)Cc1ccc(O)cc1)[C@@H](C)O)[C@@H](C)O)[C@@H](C)CC)C(=O)N[C@@H](CCC(=O)O)C(=O)N[C@@H](Cc1ccc(O)cc1)C(=O)N[C@@H](CC(C)C)C(=O)N[C@@H](CC(C)C)C(=O)N[C@@H](CCC(=O)O)C(=O)NCC(=O)NCC(=O)N1CCC[C@H]1C(=O)N[C@@H](CO)C(=O)N[C@@H](CO)C(=O)NCC(=O)N[C@@H](C)C(=O)N1CCC[C@H]1C(=O)N1CCC[C@H]1C(=O)N1CCC[C@H]1C(=O)N[C@@H](CO)C(=O)O` [HEC-PT118], for which the EC50 on GIPR came out at 128 pM; on GLP-1R it was 1200 pM; on GCGR, 221 pM.
With `CC[C@H](C)[C@H](NC(=O)[C@H](CCCCN)NC(=O)[C@H](CC(=O)O)NC(=O)[C@H](CCCCNC(=O)COCCOCCNC(=O)CC[C@H](NC(=O)CCCCCCCCCCCCCCCCC(=O)O)C(=O)O)NC(=O)[C@H](CC(C)C)NC(=O)[C@@H](NC(=O)[C@H](CO)NC(=O)[C@H](Cc1ccc(O)cc1)NC(=O)[C@H](CC(=O)O)NC(=O)[C@H](CO)NC(=O)[C@@H](NC(=O)[C@](C)(Cc1ccccc1F)NC(=O)[C@@H](NC(=O)CNC(=O)[C@H](CCC(N)=O)NC(=O)C(C)(C)NC(=O)[C@@H](N)Cc1ccc(O)cc1)[C@@H](C)O)[C@@H](C)O)[C@@H](C)CC)C(=O)N[C@@H](C)C(=O)N[C@@H](CCC(N)=O)C(=O)N[C@@H](CCCCN)C(=O)N[C@@H](C)C(=O)N[C@@H](Cc1ccccc1)C(=O)N[C@H](C(=O)N[C@@H](CCC(=O)O)C(=O)N[C@@H](Cc1ccc(O)cc1)C(=O)N[C@@H](CC(C)C)C(=O)N[C@@H](CC(C)C)C(=O)N[C@@H](CCC(=O)O)C(=O)NCC(=O)NCC(=O)N1CCC[C@H]1C(=O)N[C@@H](CO)C(=O)N[C@@H](CO)C(=O)NCC(=O)N[C@@H](C)C(=O)N1CCC[C@H]1C(=O)N1CCC[C@H]1C(=O)N1CCC[C@H]1C(=O)N[C@@H](CO)C(N)=O)[C@@H](C)CC` [HEC-PT141] (H-Y[Aib]QGT[αMePhe(2-F)]TSDYSILK([AEEA-γGlu-C18 diacid])DKIAQKAFIEYLLEGGPSSGAPPPS-NH2), the concentration giving a half-maximal response (EC50) on GIPR worked out at 95.5 pM; on GLP-1R, 163 pM; at GCGR, 216 pM.
The matching figures for `CC[C@H](C)[C@H](NC(=O)[C@H](CO)NC(=O)[C@H](Cc1ccc(O)cc1)NC(=O)[C@H](CC(=O)O)NC(=O)[C@H](CO)NC(=O)[C@@H](NC(=O)[C@](C)(Cc1ccccc1F)NC(=O)[C@@H](NC(=O)CNC(=O)[C@H](CCC(N)=O)NC(=O)C(C)(C)NC(=O)[C@@H](N)Cc1ccc(O)cc1)[C@@H](C)O)[C@@H](C)O)C(=O)N[C@@H](CC(C)C)C(=O)N[C@@H](CCCCNC(=O)COCCOCCNC(=O)CC[C@H](NC(=O)CCCCCCCCCCCCCCCCC(=O)O)C(=O)O)C(=O)N[C@@H](CC(=O)O)C(=O)N[C@@H](CCCNC(=N)N)C(=O)N[C@@H](CCCNC(=N)N)C(=O)N[C@@H](C)C(=O)N[C@@H](CCC(N)=O)C(=O)N[C@@H](CCC(N)=O)C(=O)N[C@@H](C)C(=O)N[C@@H](Cc1ccccc1)C(=O)N[C@H](C(=O)N[C@@H](CCC(=O)O)C(=O)N[C@@H](Cc1ccc(O)cc1)C(=O)N[C@@H](CC(C)C)C(=O)N[C@@H](CC(C)C)C(=O)N[C@@H](CCC(=O)O)C(=O)NCC(=O)NCC(=O)N1CCC[C@H]1C(=O)N[C@@H](CO)C(=O)N[C@@H](CO)C(=O)NCC(=O)N[C@@H](C)C(=O)N1CCC[C@H]1C(=O)N1CCC[C@H]1C(=O)N1CCC[C@H]1C(=O)N[C@@H](CO)C(=O)O)C(C)C` [HEC-PT149] (H-Y[Aib]QGT[αMePhe(2-F)]TSDYSILK([AEEA-γGlu-C18 diacid])DRRAQQAFVEYLLEGGPSSGAPPPS-OH): 264 pM, 86.8 pM and 138 pM.
For `CC[C@H](C)[C@H](NC(=O)[C@H](Cc1ccccc1)NC(=O)[C@H](CCC(=O)O)NC(=O)[C@H](CCCCNC(=O)COCCOCCNC(=O)CC[C@H](NC(=O)CCCCCCCCCCCCCCCCC(=O)O)C(=O)O)NC(=O)[C@H](CCC(N)=O)NC(=O)[C@H](CCCNC(=N)N)NC(=O)[C@@H](NC(=O)[C@H](CCCNC(=N)N)NC(=O)[C@H](CC(=O)O)NC(=O)[C@H](CC(C)C)NC(=O)[C@H](CC(C)C)NC(=O)[C@@H](NC(=O)[C@H](CO)NC(=O)[C@H](Cc1ccc(O)cc1)NC(=O)[C@H](CC(=O)O)NC(=O)[C@H](CO)NC(=O)[C@@H](NC(=O)[C@](C)(Cc1ccccc1F)NC(=O)[C@@H](NC(=O)CNC(=O)[C@H](CCC(N)=O)NC(=O)C(C)(C)NC(=O)[C@@H](N)Cc1ccc(O)cc1)[C@@H](C)O)[C@@H](C)O)[C@@H](C)CC)[C@@H](C)CC)C(=O)N[C@@H](CCC(=O)O)C(=O)N[C@@H](Cc1c[nH]c2ccccc12)C(=O)N[C@@H](CC(C)C)C(=O)N[C@@H](CC(C)C)C(=O)N[C@@H](C)C(=O)NCC(=O)NCC(=O)N1CCC[C@H]1C(=O)N[C@@H](CO)C(=O)N[C@@H](CO)C(=O)NCC(=O)N[C@@H](C)C(=O)N1CCC[C@H]1C(=O)N1CCC[C@H]1C(=O)N1CCC[C@H]1C(=O)N[C@@H](CO)C(=O)O` [HEC-PT125] (H-Y[Aib]QGT[αMePhe(2-F)]TSDYSILLDRIRQK([AEEA-γGlu-C18 diacid])EFIEWLLAGGPSSGAPPPS-OH) the same measures were 21.7 pM, 123 pM and 26.9 pM.
For `CC[C@H](C)[C@H](NC(=O)[C@H](Cc1ccccc1)NC(=O)[C@H](CCC(=O)O)NC(=O)[C@H](CCCNC(=N)N)NC(=O)[C@H](C)NC(=O)[C@H](CCCNC(=N)N)NC(=O)[C@H](CCCCNC(=O)COCCOCCNC(=O)CC[C@H](NC(=O)CCCCCCCCCCCCCCCCCCC(=O)O)C(=O)O)NC(=O)[C@H](CCC(=O)O)NC(=O)[C@H](CC(=O)O)NC(=O)[C@H](CC(C)C)NC(=O)[C@H](CC(C)C)NC(=O)[C@@H](NC(=O)[C@H](CO)NC(=O)[C@H](Cc1ccc(O)cc1)NC(=O)[C@H](CC(=O)O)NC(=O)[C@H](CO)NC(=O)[C@@H](NC(=O)[C@](C)(Cc1ccccc1F)NC(=O)[C@@H](NC(=O)CNC(=O)[C@H](Cc1c[nH]cn1)NC(=O)C(C)(C)NC(=O)[C@@H](N)Cc1ccc(O)cc1)[C@@H](C)O)[C@@H](C)O)[C@@H](C)CC)C(=O)N[C@@H](CCC(=O)O)C(=O)N[C@@H](Cc1c[nH]c2ccccc12)C(=O)N[C@@H](CC(C)C)C(=O)N[C@@H](CC(C)C)C(=O)N[C@@H](CCC(=O)O)C(=O)NCC(=O)NCC(=O)N1CCC[C@H]1C(=O)N[C@@H](CO)C(=O)N[C@@H](CO)C(=O)NCC(=O)N[C@@H](C)C(=O)N1CCC[C@H]1C(=O)N1CCC[C@H]1C(=O)N1CCC[C@H]1C(=O)N[C@@H](CO)C(=O)O` [HEC-PT89] the same measures were 214 pM, 172 pM and 41.9 pM.
On to `CC[C@H](C)[C@H](NC(=O)[C@H](Cc1ccccc1)NC(=O)[C@H](CC(=O)O)NC(=O)[C@H](CCCNC(=N)N)NC(=O)[C@H](CCC(N)=O)NC(=O)[C@H](C)NC(=O)[C@H](CCCCNC(=O)COCCOCCNC(=O)CC[C@H](NC(=O)CCCCCCCCCCCCCCCCCCC(=O)O)C(=O)O)NC(=O)[C@H](CCC(=O)O)NC(=O)[C@H](CC(=O)O)NC(=O)[C@H](CC(C)C)NC(=O)[C@H](CC(C)C)NC(=O)[C@@H](NC(=O)[C@H](CO)NC(=O)[C@H](Cc1ccc(O)cc1)NC(=O)[C@H](CC(=O)O)NC(=O)[C@H](CO)NC(=O)[C@@H](NC(=O)[C@](C)(Cc1ccccc1F)NC(=O)[C@@H](NC(=O)CNC(=O)[C@H](Cc1c[nH]cn1)NC(=O)C(C)(C)NC(=O)[C@@H](N)Cc1ccc(O)cc1)[C@@H](C)O)[C@@H](C)O)[C@@H](C)CC)C(=O)N[C@@H](CCC(=O)O)C(=O)N[C@@H](Cc1c[nH]c2ccccc12)C(=O)N[C@@H](CC(C)C)C(=O)N[C@@H](CC(C)C)C(=O)N[C@@H](C)C(=O)NCC(=O)NCC(=O)N1CCC[C@H]1C(=O)N[C@@H](CO)C(=O)N[C@@H](CO)C(=O)NCC(=O)N[C@@H](C)C(=O)N1CCC[C@H]1C(=O)N1CCC[C@H]1C(=O)N1CCC[C@H]1C(=O)N[C@@H](CO)C(=O)O` [HEC-PT65], for which the EC50 at GIPR was 157 pM; on GLP-1R, 624 pM; at GCGR it was 1360 pM.
